Data as given in US20230201158A1, “PHARMACEUTICAL COMPOSITION CAPABLE OF INHIBITING REPLICATION OF CORONAVIRUS” (MAHIDOL UNIVERSITY, priority 2020, published 2023).
Like-named read-outs stand apart in the source and are kept apart here.

Legend:
[1] = Cytotoxicity test by MTT assay; assay type: cell-based, African green monkey (Cercopithecus aethiops); settings: African green monkey (Cercopithecus aethiops), Vero E6 cells (kidney epithelial cells, ATCC #C1008), read-out: 50% cytotoxic concentration (CC50)
Procedure: (§1) According to the present disclosure, Vero E6 cells, African green monkey (Cercopithecus aethiops) kidney epithelial cells (ATCC #C1008), were used for the antiviral screening. The cells were grown in Dulbecco's Modified Eagle Medium (DMEM) (Gibco, USA) with 10% fetal bovine serum (FBS) (Gibco, USA). For Vero cells (African green monkey epithelial cells), these cells were cultured in Minimum Essential Medium (MEM) (Gibco, USA) supplemented with 10% FBS and L-glutamine (Gibco, USA). All cultures were grown at 37° C. in 5% CO2 atmosphere and used in the experiments described in the following examples.
(§2) For Cytotoxicity Test by using MTT assay, the Vero E6 cells were cultured in 96-well plates with 10,000 cells per well and kept in an incubator for 24 hours. Then, the cells were incubated with the two active compounds from the B. rotunda extract, Panduratin A and Pinostrobin, in the incubator for 48 hours. When the given time was completed, 100 uL of […] MTT solvent was added and cells were incubated in the incubator for another 3 hours. MTT solvent was removed and 100 uL DMSO was added. Light absorbance was measured at 570 nm by a microplate reader, and 50% cytotoxicity concentration (CC50) was calculated for each replicate.

[2] = system: SARS-CoV-2; test: Antiviral activity test, immunofluorescence high-content imaging, post-infection treatment; assay type: cell-based
[3] = system: SARS-CoV-2; assay type: cell-based
[4] = system: Vero E6 cells; test: Cytotoxicity test by MTT assay; assay type: cell-based, African green monkey (Cercopithecus aethiops); settings: 48 h, read-out: 50% cytotoxic concentration (CC50)
Procedure: as §1, §2

[5] = system: SARS-CoV-2; test: Anti-SARS-CoV-2 effect at the pre-entry phase, high-content imaging; assay type: cell-based; settings: pre-incubated with virus 1 h, adsorption 2 h on Vero E6, washed, 48 h
[6] = system: Vero E6 cells; settings: read-out: CC50, pre-entry phase, pre-entry condition
[7] = system: SARS-CoV-2; test: Plaque assay of viral output, post-infection treatment; assay type: cell-based; settings: FIG. 6
Procedure: Furthermore, the viral output of SARS-CoV-2 in the present disclosure was reported as the infectious titers that were determined by plaque assay. In brief, Vero cell monolayer was seeded into 6-well plate 24 hours before the infection. The cells were inoculated with a serial dilution of the virus and incubated for viral adsorption for 1 hour at 37° C. Then, the cells were overlaid with 3 mL/well of overlay medium containing MEM supplemented with 5% FBS and 1% agarose. To allow plaque to develop, the culture was incubated at 37° C. in 5% CO2 for 3 days. After that, plaque phenotypes were visualized by staining with 0.33% Neutral Red solution (Sigma, USA) for 5 hrs. Plaque numbers were counted and calculated as plaque-forming unit (PFU) per milliliter (mL).

[8] = system: SARS-CoV-2; test: Plaque assay of viral output, pre-entry phase; assay type: cell-based; settings: 50 μM, FIG. 9

CCN(CCO)CCCC(C)Nc1ccnc2cc(Cl)ccc12 (centres unmarked) [Hydroxychloroquine, reference compound]
CC50 at 48 h [1]: > 100 µM | IC50 ([2]; Severe acute respiratory syndrome coronavirus 2, Vero C1008, read-out: 50% inhibition concentration (IC50), given in ug/mL beside the uM value): 1.71 µg/mL

COc1cc(O)c(C(=O)[C@@H]2[C@H](CC=C(C)C)C(C)=CC[C@H]2c2ccccc2)c(O)c1 [Panduratin A]
Virus titer (reduced in) ([3]; 72 h, 5 μM, vehicle 4.5 log PFU/mL): 3 log PFU/mL | Reduction of virus titers (result in words) ([3]; primary human alveolar cells, FIG. 10): reduced virus titers in a dose-dependent manner | CC50 [4]: 14.7 µM | IC50 [5]: 5.3 µM | CC50 [6]: 43.5 µM | IC50 ([2]; Vero E6 cells infected 2 h, then treated 48 h (post-infection), read-out: 50% inhibition concentration (IC50)): 0.81 µM | Inhibition of coronavirus replication in plaque assay (result in words) [7]: significantly lower than that of Hydroxychloroquine | Suppression of the infectious virion production [8]: absolutely suppressed

COc1cc(O)c2c(c1)O[C@H](c1ccccc1)CC2=O [Pinostrobin]
Virus titer (reduced in) ([3]; 72 h, 25 μM, vehicle 4.5 log PFU/mL): 3 log PFU/mL | Virus titer ([3]; 72 h, 50 μM, vehicle 4.5 log PFU/mL): 2.0 log PFU/mL | CC50 at 48 h [1]: > 100 µM | IC50 ([2]; Severe acute respiratory syndrome coronavirus 2, Vero C1008, read-out: 50% inhibition concentration (IC50)): 0.44 µM
